Legend:
Format in all cases: in vivo
[1] = tested on: giant foxtail (Setaria faberi); experiment: Test G Pre-Emergence Protocol; settings: Setaria faberi, pre-emergence, 312 h, evaluated after 13 days; for pest or weed control at 15.625 g/ha: 15.625 g ai/ha; for pest or weed control at 15.625 g/ha / pest or weed control at 250 g/ha: read-out: Foxtail, Giant damage rating (100=total damage to plant; 0=no damage to plant); for pest or weed control at 62.5 g/ha: 62.5 g ai/ha, 100=total damage to plant, 0=no damage to plant, read-out: plant damage rating, Foxtail, Giant; for pest or weed control at 250 g/ha: 250 g ai/ha
Procedure, shortened: (§1)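 Spraying took place one day after sowing, at 15.625, 62.5 or 250 g/ha, using an acetone/water (50:50) spray solution containing 0.5% Tween 20. Plants were kept under glasshouse conditions (24/16 °C, 14 h light, 65% humidity, watered twice daily), and injury was rated 0–100 at day 13.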

[2] = tested on: velvetleaf (Abutilon theophrasti); experiment: Test G Pre-Emergence Protocol; settings: Abutilon theophrasti, pre-emergence, 312 h, evaluated after 13 days; for pest or weed control at 15.625 g/ha: 15.625 g ai/ha; for pest or weed control at 15.625 g/ha / pest or weed control at 250 g/ha: read-out: Velvetleaf damage rating (100=total damage to plant; 0=no damage to plant); for pest or weed control at 62.5 g/ha: 62.5 g ai/ha, 100=total damage to plant, 0=no damage to plant, read-out: plant damage rating, Velvetleaf; for pest or weed control at 250 g/ha: 250 g ai/ha
Procedure, shortened: as §1

[3] = tested on: barnyardgrass (Echinochloa crus-galli); experiment: Test G Pre-Emergence Protocol; settings: Echinochloa crus-galli, pre-emergence, 312 h, evaluated after 13 days; for pest or weed control at 15.625 g/ha: 15.625 g ai/ha, read-out: Barnyard grass damage rating (100=total damage to plant; 0=no damage to plant); for pest or weed control at 62.5 g/ha: 62.5 g ai/ha, 100=total damage to plant, 0=no damage to plant, read-out: plant damage rating, Barnyardgrass; for pest or weed control at 250 g/ha: 250 g ai/ha, read-out: Barnyardgrass damage rating (100=total damage to plant; 0=no damage to plant)
Procedure, shortened: as §1

[4] = tested on: ivy-leaved morning glory (Ipomoea hederacea); experiment: Test G Pre-Emergence Protocol; settings: Ipomoea, pre-emergence, 312 h, evaluated after 13 days; for pest or weed control at 15.625 g/ha: 15.625 g ai/ha, read-out: Morning-glory, Ivy-leaved damage rating (100=total damage to plant; 0=no damage to plant); for pest or weed control at 62.5 g/ha: 62.5 g ai/ha, 100=total damage to plant, 0=no damage to plant, read-out: plant damage rating, Morningglory, Ivy-leaved; for pest or weed control at 250 g/ha: 250 g ai/ha, read-out: Morningglory, Ivy-leaved damage rating (100=total damage to plant; 0=no damage to plant)
Procedure, shortened: as §1

corn (Zea mays) [5] = experiment: Test G Pre-Emergence Protocol; settings: Zea mays, pre-emergence, 312 h, evaluated after 13 days; for plant injury at 15.625 g/ha: 15.625 g ai/ha; for plant injury at 15.625 g/ha / plant injury at 250 g/ha: read-out: Corn damage rating (100=total damage to plant; 0=no damage to plant); for plant injury at 62.5 g/ha: 62.5 g ai/ha, 100=total damage to plant, 0=no damage to plant, read-out: plant damage rating, Corn; for plant injury at 250 g/ha: 250 g ai/ha
Procedure, shortened: as §1

[6] = tested on: redroot pigweed (Amaranthus retroflexus); experiment: Test G Pre-Emergence Protocol; settings: Amaranthus retroflexus, pre-emergence, 312 h, evaluated after 13 days; for pest or weed control at 15.625 g/ha: 15.625 g ai/ha; for pest or weed control at 15.625 g/ha / pest or weed control at 250 g/ha: read-out: Pigweed, Redroot damage rating (100=total damage to plant; 0=no damage to plant); for pest or weed control at 62.5 g/ha: 62.5 g ai/ha, 100=total damage to plant, 0=no damage to plant, read-out: plant damage rating, Pigweed, Redroot; for pest or weed control at 250 g/ha: 250 g ai/ha
Procedure, shortened: as §1

[7] = tested on: giant foxtail (Setaria faberi); experiment: Test G Post-Emergence Protocol; settings: Setaria faberi, post-emergence, 312 h; for pest or weed control at 15.625 g/ha: 15.625 g ai/ha, evaluated after 13 days (100=total damage to plant; 0=no damage to plant), read-out: Foxtail, Giant damage rating; for pest or weed control at 62.5 g/ha: 62.5 g ai/ha, read-out: Foxtail, Giant damage rating (100=total damage to plant; 0=no damage to plant); for pest or weed control at 62.5 g/ha / pest or weed control at 250 g/ha: evaluated after 13 days; for pest or weed control at 250 g/ha: 250 g ai/ha, read-out: damage to plant, Foxtail, Giant (100=total damage to plant; 0=no damage to plant)
Procedure, shortened: (§2)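 Seedlings grown 8 days in soil in a glasshouse (24/16 °C day/night, 14 h light, 65% humidity) were sprayed post-emergence with compound in acetone/water 50:50 plus 0.5% Tween 20 at 15.625, 62.5 or 250 g/ha. Damage was scored after 13 days on a 0–100 scale (100 = total damage).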

[8] = tested on: velvetleaf (Abutilon theophrasti); experiment: Test G Post-Emergence Protocol; settings: Abutilon theophrasti, post-emergence, 312 h; for pest or weed control at 15.625 g/ha: 15.625 g ai/ha, evaluated after 13 days (100=total damage to plant; 0=no damage to plant), read-out: Velvetleaf damage rating; for pest or weed control at 62.5 g/ha: 62.5 g ai/ha, read-out: Velvetleaf damage rating (100=total damage to plant; 0=no damage to plant); for pest or weed control at 62.5 g/ha / pest or weed control at 250 g/ha: evaluated after 13 days; for pest or weed control at 250 g/ha: 250 g ai/ha, read-out: damage to plant, Velvetleaf (100=total damage to plant; 0=no damage to plant)
Procedure, shortened: as §2

[9] = tested on: barnyardgrass (Echinochloa crus-galli); experiment: Test G Post-Emergence Protocol; settings: Echinochloa crus-galli, post-emergence, 312 h; for pest or weed control at 15.625 g/ha: 15.625 g ai/ha, evaluated after 13 days (100=total damage to plant; 0=no damage to plant), read-out: Barnyardgrass damage rating; for pest or weed control at 62.5 g/ha: 62.5 g ai/ha, read-out: Barnyardgrass damage rating (100=total damage to plant; 0=no damage to plant); for pest or weed control at 62.5 g/ha / pest or weed control at 250 g/ha: evaluated after 13 days; for pest or weed control at 250 g/ha: 250 g ai/ha, read-out: damage to plant, Barnyardgrass (100=total damage to plant; 0=no damage to plant)
Procedure, shortened: as §2

[10] = tested on: ivy-leaved morning glory (Ipomoea hederacea); experiment: Test G Post-Emergence Protocol; settings: Ipomoea, post-emergence, 312 h; for pest or weed control at 15.625 g/ha: 15.625 g ai/ha, evaluated after 13 days (100=total damage to plant; 0=no damage to plant), read-out: Morningglory, Ivy-leaved damage rating; for pest or weed control at 62.5 g/ha: 62.5 g ai/ha, read-out: Morningglory, Ivy-leaved damage rating (100=total damage to plant; 0=no damage to plant); for pest or weed control at 62.5 g/ha / pest or weed control at 250 g/ha: evaluated after 13 days; for pest or weed control at 250 g/ha: 250 g ai/ha, read-out: damage to plant, Morningglory, Ivy-leaved (100=total damage to plant; 0=no damage to plant)
Procedure, shortened: as §2

corn (Zea mays) [11] = experiment: Test G Post-Emergence Protocol; settings: Zea mays, post-emergence, 312 h; for plant injury at 15.625 g/ha: 15.625 g ai/ha, evaluated after 13 days (100=total damage to plant; 0=no damage to plant), read-out: Corn damage rating; for plant injury at 62.5 g/ha: 62.5 g ai/ha, read-out: Corn damage rating (100=total damage to plant; 0=no damage to plant); for plant injury at 62.5 g/ha / plant injury at 250 g/ha: evaluated after 13 days; for plant injury at 250 g/ha: 250 g ai/ha, read-out: damage to plant, Corn (100=total damage to plant; 0=no damage to plant)
Procedure, shortened: as §2

[12] = tested on: redroot pigweed (Amaranthus retroflexus); experiment: Test G Post-Emergence Protocol; settings: Amaranthus retroflexus, post-emergence, 312 h; for pest or weed control at 15.625 g/ha: 15.625 g ai/ha, evaluated after 13 days (100=total damage to plant; 0=no damage to plant), read-out: Pigweed, Redroot damage rating; for pest or weed control at 62.5 g/ha: 62.5 g ai/ha, read-out: Pigweed, Redroot damage rating (100=total damage to plant; 0=no damage to plant); for pest or weed control at 62.5 g/ha / pest or weed control at 250 g/ha: evaluated after 13 days; for pest or weed control at 250 g/ha: 250 g ai/ha, read-out: damage to plant, Pigweed, Redroot (100=total damage to plant; 0=no damage to plant)
Procedure, shortened: as §2

Row | SMILES | pest or weed control at 15.625 g/ha [1] [%] | pest or weed control at 62.5 g/ha [1] [%] | pest or weed control at 250 g/ha [1] [%] | pest or weed control at 15.625 g/ha [2] [%] | pest or weed control at 62.5 g/ha [2] [%] | pest or weed control at 250 g/ha [2] [%] | pest or weed control at 15.625 g/ha [3] [%] | pest or weed control at 62.5 g/ha [3] [%] | pest or weed control at 250 g/ha [3] [%] | pest or weed control at 15.625 g/ha [4] [%] | pest or weed control at 62.5 g/ha [4] [%] | pest or weed control at 250 g/ha [4] [%] | plant injury at 15.625 g/ha (corn (Zea mays) [5]) [%] | plant injury at 62.5 g/ha (corn (Zea mays) [5]) [%] | plant injury at 250 g/ha (corn (Zea mays) [5]) [%] | pest or weed control at 15.625 g/ha [6] [%] | pest or weed control at 62.5 g/ha [6] [%] | pest or weed control at 250 g/ha [6] [%] | pest or weed control at 15.625 g/ha [7] [%] | pest or weed control at 62.5 g/ha [7] [%] | also measured
1 | CN1C[C@H](c2ccc(C(F)(F)F)cc2)[C@@H](C(=O)Nc2cnccc2O)C1=O (racemic) [Compound 1466] | 0 | 0 | 0 | 0 | 0 | 0 | 0 | 0 | 0 | 0 | 0 | 0 | 0 | 0 | 0 | 0 | 0 | 0 | 0 | 10 | pest or weed control at 250 g/ha [7]: 30%; pest or weed control at 15.625 g/ha [8]: 0%; pest or weed control at 62.5 g/ha [8]: 0%; pest or weed control at 250 g/ha [8]: 0%; pest or weed control at 15.625 g/ha [9]: 0%; pest or weed control at 62.5 g/ha [9]: 0%; pest or weed control at 250 g/ha [9]: 20%; pest or weed control at 15.625 g/ha [10]: 0%; pest or weed control at 62.5 g/ha [10]: 10%; pest or weed control at 250 g/ha [10]: 10%; plant injury at 15.625 g/ha (corn (Zea mays) [11]): 0%; plant injury at 62.5 g/ha (corn (Zea mays) [11]): 10%; plant injury at 250 g/ha (corn (Zea mays) [11]): 20%; pest or weed control at 15.625 g/ha [12]: 10%; pest or weed control at 62.5 g/ha [12]: 30%; pest or weed control at 250 g/ha [12]: 80%
2 | CN1C[C@H](c2ccc(F)c(C#N)c2)[C@@H](C(=O)Nc2ccccc2F)C1=O (racemic) [Compound 1468] | 80 | 80 | 90 | 0 | 0 | 0 | 10 | 70 | 80 | 0 | 0 | 0 | 0 | 0 | 0 | 0 | 0 | 0 | 30 | 70 | pest or weed control at 250 g/ha [7]: 70%; pest or weed control at 15.625 g/ha [8]: 0%; pest or weed control at 62.5 g/ha [8]: 0%; pest or weed control at 250 g/ha [8]: 10%; pest or weed control at 15.625 g/ha [9]: 10%; pest or weed control at 62.5 g/ha [9]: 50%; pest or weed control at 250 g/ha [9]: 40%; pest or weed control at 15.625 g/ha [10]: 10%; pest or weed control at 62.5 g/ha [10]: 0%; pest or weed control at 250 g/ha [10]: 10%; plant injury at 15.625 g/ha (corn (Zea mays) [11]): 10%; plant injury at 62.5 g/ha (corn (Zea mays) [11]): 10%; plant injury at 250 g/ha (corn (Zea mays) [11]): 10%; pest or weed control at 15.625 g/ha [12]: 10%; pest or weed control at 62.5 g/ha [12]: 0%; pest or weed control at 250 g/ha [12]: 30%

Source: US12077503B2, “Substituted cyclic amides and their use as herbicides” (FMC CORPORATION, priority 2015, dated 2024)
